In ChEMBL document CHEMBL1795338, “Identification of pentacyclic triterpenes derivatives as potent inhibitors against glycogen phosphorylase based on 3D-QSAR studies” (Eur J Med Chem, 2011):

Target: T1, Glycogen phosphorylase, muscle form (Oryctolagus cuniculus, UniProt P00489)
T1 sequence (P00489 whole entry): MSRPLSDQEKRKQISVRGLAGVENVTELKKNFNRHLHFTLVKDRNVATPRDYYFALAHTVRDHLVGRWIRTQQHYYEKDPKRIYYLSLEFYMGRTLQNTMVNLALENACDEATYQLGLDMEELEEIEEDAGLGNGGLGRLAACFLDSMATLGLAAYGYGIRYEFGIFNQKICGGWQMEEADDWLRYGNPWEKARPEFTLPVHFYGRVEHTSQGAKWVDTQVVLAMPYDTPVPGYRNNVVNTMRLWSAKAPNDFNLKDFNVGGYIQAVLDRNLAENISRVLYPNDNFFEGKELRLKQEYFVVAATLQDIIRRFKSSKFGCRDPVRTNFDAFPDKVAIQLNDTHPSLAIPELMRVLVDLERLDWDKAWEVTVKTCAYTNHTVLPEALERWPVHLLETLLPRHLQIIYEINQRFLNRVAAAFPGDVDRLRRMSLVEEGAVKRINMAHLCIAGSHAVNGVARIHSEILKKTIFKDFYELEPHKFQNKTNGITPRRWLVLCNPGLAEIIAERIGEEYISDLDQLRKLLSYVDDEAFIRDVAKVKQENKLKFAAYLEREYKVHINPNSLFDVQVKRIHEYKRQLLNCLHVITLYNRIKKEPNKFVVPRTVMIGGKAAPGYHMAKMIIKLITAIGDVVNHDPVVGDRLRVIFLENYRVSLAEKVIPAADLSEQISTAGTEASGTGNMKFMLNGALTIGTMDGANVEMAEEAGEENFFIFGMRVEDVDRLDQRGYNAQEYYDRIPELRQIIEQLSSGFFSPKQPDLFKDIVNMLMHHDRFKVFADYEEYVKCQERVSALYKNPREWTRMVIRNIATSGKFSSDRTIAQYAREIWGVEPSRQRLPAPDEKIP
Assay: Inhibition of rabbit muscle glycogen phosphorylase A assessed as release of phosphate from glucose-1-phosphate after 25 mins by microplate reader based method

Going from `C[C@H]1[C@H](C)CC[C@]2(C(=O)O)CC[C@]3(C)C(=CC[C@@H]4[C@@]5(C)C[C@H](O)CC(C)(C)[C@@H]5CC[C@]43C)[C@H]12` to `COC(=O)[C@]12CC[C@@H](C)[C@H](C)[C@H]1C1=CC[C@@H]3[C@@]4(C)C[C@@H](O)[C@H](O)C(C)(C)[C@@H]4CC[C@@]3(C)[C@]1(C)CC2` [COROSOLIC ACID METHYL ESTER], the IC50 rises from 20.6 µM to 33.7 µM (1.6-fold).

Going from `CC1(C)CC[C@]2(C(=O)OCc3ccccc3)CC[C@]3(C)C(=CC[C@@H]4[C@@]5(C)CC(=O)[C@H](O)C(C)(C)[C@@H]5CC[C@]43C)[C@@H]2C1` to `CC1(C)CC[C@]2(C(=O)OCc3ccccc3)CC[C@]3(C)C(=CC[C@@H]4[C@@]5(C)CC/C(=N\O)C(C)(C)[C@@H]5CC[C@]43C)[C@@H]2C1`, the IC50 falls from 52.9 µM to 20.8 µM (2.5-fold). The second is the more potent here.

Going from `CC1(C)CC[C@]2(C(=O)O)CC[C@]3(C)C(=CC[C@@H]4[C@@]5(C)C/C(=N\O)C(=O)C(C)(C)[C@@H]5CC[C@]43C)[C@@H]2C1` to `CC1(C)CC[C@]2(C(=O)O)CC[C@]3(C)C(=CC[C@@H]4[C@@]5(C)CC/C(=N\O)C(C)(C)[C@@H]5CC[C@]43C)[C@@H]2C1`, the IC50 rises from 26.1 µM to 225 µM (8.6-fold).

First: CC1(C)CC[C@]2(C(=O)OCc3ccccc3)CC[C@]3(C)C(=CC[C@@H]4[C@@]5(C)CC6C=NOC6C(C)(C)[C@@H]5CC[C@]43C)[C@@H]2C1 (some centres undefined)
Second: CC1(C)CC[C@]2(C(=O)OCc3ccccc3)CC[C@]3(C)C(=CC[C@@H]4[C@@]5(C)Cc6cn[nH]c6C(C)(C)[C@@H]5CC[C@]43C)[C@@H]2C1
The IC50 of the first is 2.4-fold higher: 19.6 µM for the first, 8.1 µM for the second.

Compared with `CCn1cc2c(n1)C(C)(C)[C@@H]1CC[C@]3(C)[C@H](CC=C4[C@@H]5CC(C)(C)CC[C@]5(C(=O)OCc5ccccc5)CC[C@]43C)[C@@]1(C)C2`, `Cn1cc2c(n1)C(C)(C)[C@@H]1CC[C@]3(C)[C@H](CC=C4[C@@H]5CC(C)(C)CC[C@]5(C(=O)OCc5ccccc5)CC[C@]43C)[C@@]1(C)C2` is 2.9-fold higher in IC50: 64.6 µM for the first, 188 µM for the second.

Going from `C[C@H]1[C@H](C)CC[C@]2(C(=O)O)CC[C@]3(C)C(=CC[C@@H]4[C@@]5(C)Cc6cn[nH]c6C(C)(C)[C@@H]5CC[C@]43C)[C@H]12` to `C[C@H]1[C@H](C)CC[C@]2(C(=O)OCc3ccccc3)CC[C@]3(C)C(=CC[C@@H]4[C@@]5(C)Cc6cn[nH]c6C(C)(C)[C@@H]5CC[C@]43C)[C@H]12`, the IC50 rises from 40.4 µM to 72.9 µM (1.8-fold).

Compared with `CO[C@H]1O[C@H](Cn2cc(COC(=O)[C@]34CCC(C)(C)C[C@H]3C3=CC[C@@H]5[C@@]6(C)CC[C@H](O)C(C)(C)[C@@H]6CC[C@@]5(C)[C@]3(C)CC4)nn2)[C@@H](O)[C@H](O)[C@H]1O`, `CCOC(=O)CCCOC(=O)[C@]12CCC(C)(C)C[C@H]1C1=CC[C@@H]3[C@@]4(C)CC[C@H](O)C(C)(C)[C@@H]4CC[C@@]3(C)[C@]1(C)CC2` is 67-fold higher in IC50: 1.14 µM for the first, 76.7 µM for the second.

Going from `Cc1ccc(-n2ncc3c2C(C)(C)[C@@H]2CC[C@]4(C)[C@H](CC=C5[C@@H]6CC(C)(C)CC[C@]6(C(=O)OCc6ccccc6)CC[C@]54C)[C@@]2(C)C3)cc1` to `CC1(C)CC[C@]2(C(=O)OCc3ccccc3)CC[C@]3(C)C(=CC[C@@H]4[C@@]5(C)Cc6cn(CC(=O)O)nc6C(C)(C)[C@@H]5CC[C@]43C)[C@@H]2C1`, the IC50 falls from 106 µM to 47.1 µM (2.3-fold). The second is the more potent here.

Going from `CCOC(=O)COC(=O)[C@]12CC[C@@H](C)[C@H](C)[C@H]1C1=CC[C@@H]3[C@@]4(C)CC[C@H](O)C(C)(C)[C@@H]4CC[C@@]3(C)[C@]1(C)CC2` to `C[C@H]1[C@H](C)CC[C@]2(C(=O)OCC(=O)O)CC[C@]3(C)C(=CC[C@@H]4[C@@]5(C)CC[C@H](O)C(C)(C)[C@@H]5CC[C@]43C)[C@H]12`, the IC50 rises from 4.1 µM to 188 µM (46-fold). The first is the more potent here.

First: CC1(C)CC[C@]2(C(=O)O)CC[C@]3(C)C(=CC[C@@H]4[C@@]5(C)C[C@@H](O)[C@H](O)[C@@](C)(CO)[C@@H]5CC[C@]43C)[C@@H]2C1 [ARJUNOLIC ACID]
Second: CC1(C)CC[C@]2(C(=O)O)CC[C@]3(C)C(=CC[C@@H]4[C@@]5(C)CCC(=O)[C@@](C)(CO)[C@@H]5CC[C@]43C)[C@@H]2C1
The IC50 of the first is 1.9-fold higher: 103 µM for the first, 53.5 µM for the second. The second is the more potent here.

First: CC1(C)CC[C@]2(C(=O)OCc3ccccc3)CC[C@]3(C)C(=CC[C@@H]4[C@@]5(C)C/C(=N\OCc6ccccc6)C(=O)C(C)(C)[C@@H]5CC[C@]43C)[C@@H]2C1
Second: CC1(C)CC[C@]2(C(=O)OCc3ccccc3)CC[C@]3(C)C(=CC[C@@H]4[C@@]5(C)C/C(=N\OCc6ccc(Cl)cc6Cl)C(=O)C(C)(C)[C@@H]5CC[C@]43C)[C@@H]2C1
The IC50 of the first is 7.7-fold higher: 61.3 µM for the first, 8 µM for the second.

Compared with `C[C@H]1[C@H](C)CC[C@]2(C(=O)OCCNC3CCCCC3)CC[C@]3(C)C(=CC[C@@H]4[C@@]5(C)CC[C@H](O)C(C)(C)[C@@H]5CC[C@]43C)[C@H]12`, `CCOC(=O)[C@]12CC[C@@H](C)[C@H](C)[C@H]1C1=CC[C@@H]3[C@@]4(C)C[C@@H](O)[C@H](O)C(C)(C)[C@@H]4CC[C@@]3(C)[C@]1(C)CC2` is 1.8-fold higher in IC50: 25.6 µM for the first, 46.7 µM for the second.

Compared with `CC1(C)CC[C@]2(C(=O)OCc3ccccc3)CC[C@]3(C)C(=CC[C@@H]4[C@@]5(C)CC(=N\O)/C(=N\O)C(C)(C)[C@@H]5CC[C@]43C)[C@@H]2C1`, `CC1(C)CC[C@]2(C(=O)OCc3ccccc3)CC[C@]3(C)C(=CC[C@@H]4[C@@]5(C)CC[C@H](OC(=O)c6ccc(N)cc6)C(C)(C)[C@@H]5CC[C@]43C)[C@@H]2C1` is 10-fold lower in IC50: 22.3 µM for the first, 2.13 µM for the second. The second is the more potent here.

Compared with `CCCCCC(=O)O[C@@H]1C[C@]2(C)[C@H]3CC=C4[C@@H]5[C@@H](C)[C@H](C)CC[C@]5(C(=O)O)CC[C@@]4(C)[C@]3(C)CC[C@H]2C(C)(C)[C@H]1O`, `C[C@H]1[C@H](C)CC[C@]2(C(=O)O)CC[C@]3(C)C(=CC[C@@H]4[C@@]5(C)C[C@@H](OC(=O)c6ccccc6)[C@H](O)C(C)(C)[C@@H]5CC[C@]43C)[C@H]12` is 1.6-fold higher in IC50: 3.26 µM for the first, 5.1 µM for the second. The first is the more potent here.

Compared with `C[C@H]1[C@H](C)CC[C@]2(C(=O)OCc3ccccc3)CC[C@]3(C)C(=CC[C@@H]4[C@@]5(C)C[C@@H](O)C(=O)C(C)(C)[C@@H]5CC[C@]43C)[C@H]12`, `C[C@H]1[C@H](C)CC[C@]2(C(=O)OCn3cccn3)CC[C@]3(C)C(=CC[C@@H]4[C@@]5(C)C[C@@H](O)[C@H](O)C(C)(C)[C@@H]5CC[C@]43C)[C@H]12` is 2-fold higher in IC50: 31.8 µM for the first, 62.1 µM for the second.

`C[C@H]1[C@H](C)CC[C@]2(C(=O)OCCN3CCCCC3)CC[C@]3(C)C(=CC[C@@H]4[C@@]5(C)C[C@@H](O)[C@H](O)[C@@](C)(CO)[C@@H]5CC[C@]43C)[C@H]12` and `C[C@H]1[C@H](C)CC[C@]2(C(=O)OCCN3CCOCC3)CC[C@]3(C)C(=CC[C@@H]4[C@@]5(C)C[C@@H](O)[C@H](O)[C@@](C)(CO)[C@@H]5CC[C@]43C)[C@H]12` are within 1.5-fold of each other in IC50: 132 µM for the first, 173 µM for the second.

Compared with `CCOC(=O)COC(=O)[C@]12CC[C@@H](C)[C@H](C)[C@H]1C1=CC[C@@H]3[C@@]4(C)C[C@@H](O)[C@H](O)C(C)(C)[C@@H]4CC[C@@]3(C)[C@]1(C)CC2`, `COC(=O)[C@@]1(C)[C@@H]2CC[C@]3(C)[C@H](CC=C4[C@@H]5[C@@H](C)[C@H](C)CC[C@]5(C(=O)O)CC[C@]43C)[C@@]2(C)C[C@@H](OC(C)=O)[C@@H]1OC(C)=O` is 3.1-fold lower in IC50: 102 µM for the first, 33 µM for the second.

First: CC1(C)CC[C@]2(C(=O)OCc3ccccc3)CC[C@]3(C)C(=CC[C@@H]4[C@@]5(C)CC[C@H](OC(=O)Cn6cc(COC(=O)Cc7ccccc7)nn6)C(C)(C)[C@@H]5CC[C@]43C)[C@@H]2C1
Second: CC1(C)CC[C@]2(C(=O)OCc3ccccc3)CC[C@]3(C)C(=CC[C@@H]4[C@@]5(C)CC[C@H](OC(=O)c6ccc([N+](=O)[O-])cc6)C(C)(C)[C@@H]5CC[C@]43C)[C@@H]2C1
The IC50 of the first is 1.7-fold higher: 27.7 µM for the first, 16.1 µM for the second. The second is the more potent here.

Compared with `CC(=O)O[C@@H]1C[C@]2(C)[C@H]3CC=C4[C@@H]5CC(C)(C)CC[C@]5(C(=O)O)CC[C@@]4(C)[C@]3(C)CC[C@H]2C(C)(C)[C@H]1OC(C)=O`, `CC1(C)CC[C@]2(C(=O)O)CC[C@]3(C)C(=CC[C@@H]4[C@@]5(C)Cc6cn(S(C)(=O)=O)nc6C(C)(C)[C@@H]5CC[C@]43C)[C@@H]2C1` is 3.7-fold higher in IC50: 13.3 µM for the first, 49.3 µM for the second.

Going from `CC1(C)CC[C@]2(C(=O)OCc3ccccc3)CC[C@]3(C)[C@H]([C@@H](O)C[C@@H]4[C@@]5(C)CC[C@H](O)C(C)(C)[C@@H]5CC[C@]43C)[C@@H]2C1` to `CC1(C)CC[C@]2(C(=O)O)CC[C@]3(C)[C@H]([C@@H](O)C[C@@H]4[C@@]5(C)CC[C@H](O)C(C)(C)[C@@H]5CC[C@]43C)[C@@H]2C1`, the IC50 falls from 6.54 µM to 3.07 µM (2.1-fold). The second is the more potent here.

Compared with `CCCOC(=O)[C@@]1(C)[C@@H]2CC[C@]3(C)[C@H](CC=C4[C@@H]5[C@@H](C)[C@H](C)CC[C@]5(C(=O)O)CC[C@]43C)[C@@]2(C)C[C@@H](OC(=O)CCC)[C@@H]1OC(=O)CCC`, `C[C@H]1[C@H](C)CC[C@]2(C(=O)O)CC[C@]3(C)C(=CC[C@@H]4[C@@]5(C)Cc6nonc6C(C)(C)[C@@H]5CC[C@]43C)[C@H]12` is 6.6-fold higher in IC50: 10 µM for the first, 66.3 µM for the second. The first is the more potent here.

Compared with `COCc1cn(CCCCCCn2cc(CO[C@H]3CC[C@]4(C)[C@H]5CC=C6[C@@H]7CC(C)(C)CC[C@]7(C(=O)O)CC[C@@]6(C)[C@]5(C)CC[C@H]4C3(C)C)nn2)nn1`, `CCN(CC)CC(=O)O[C@H]1CC[C@]2(C)[C@H]3CC=C4[C@@H]5CC(C)(C)CC[C@]5(C(=O)OCc5ccccc5)CC[C@@]4(C)[C@]3(C)CC[C@H]2C1(C)C` is 7.8-fold higher in IC50: 2.59 µM for the first, 20.1 µM for the second. The first is the more potent here.
